Test results as given in patent US20050209278A1, “Piperidinyl- and piperazinyl-sulfonylmethyl hydroxamic acids and their use as protease inhibitors” (priority 2002, published 2005).
Where a name gives a salt, the structure may show the parent alone. Read-outs that look alike come from different tables or passages of the source.

How the values were obtained:
[1] = target: T1, MMP-13 (Homo sapiens, UniProt P45452); assay: In vitro MMP inhibition, Ki determination (fluorogenic substrate II); type: biochemical
T1 construct: made in house; host or cells: baculovirus / insect cells
Experimental: (§1) Several hydroxamic acids and salts thereof were analyzed in in vitro assays to determine their ability to inhibit the MMP cleavage of peptide substrates. […] and IC50 constants were calculated from the assayed hydroxamic acid-MMP interactions.
(§2) Human recombinant MMP-1, MMP-2, MMP-9, MMP-13, and MMP-14 were used in this assay. All enzymes were prepared in Assignee's laboratories following usual laboratory procedures. Protocols for the preparation and use of these enzymes are available in the scientific literature. See, e.g., Enzyme Nomenclature (Academic Press, San Diego, Calif., 1992) (and the citations therein). See also, Freije et al., “Molecular cloning and expression of collagenase-3, a novel human matrix metalloproteinase produced by breast carcinomas,” J Biol. Chem., 269(24), 16766-16773 (1994).
The MMP-13 was obtained as a proenzyme from a full-length cDNA clone using baculovirus, as described by V. A. Luckow, “Insect Cell Expression Technology,” Protein Engineering: Principles and Practice, pp. 183-218 (edited by J. L. Cleland et al., Wiley-Liss, Inc., 1996). The expressed proenzyme was first purified over a heparin agarose column, and then over a chelating zinc chloride column. The proenzyme was then activated by APMA for use in the assay. […] See also, O'Reilly et al, Baculovirus Expression Vectors: A Laboratory Manual (W.H. Freeman and Co., New York, N.Y., 1992). See also, King et al., The Baculovirus Expression System: A Laboratory Guide (Chapman & Hall, London, England, 1992).
(§3) All MMPs were activated using 4-aminophenylmercuric acetate (“APMA”, Sigma Chemical, St. Louis, Mo.) or trypsin. MMP-9 also was activated using human recombinant MMP-3 (purified in Assignee's laboratory following standard cloning and purification techniques).
(§4) Two fluorogenic, methoxycoumarin-containing polypeptide substrates were used in the MMP inhibition assays: [drawing 427] Here, “Dpa” is 3-(2,4-dinitrophenyl)-L-2,3-diaminopropionyl group, and “MCA” is 7-methoxycoumarin-4-yl acetyl. Substrate (I) was purchased from Baychem (Redwood City, Calif.), and substrate II was prepared Assignee's laboratory. Substrate I was used in the IC50 determination assays, while substrate II was used in the Ki determination assays. In the absence of MMP inhibitory activity, either substrate is cleaved at the Gly-Leu peptide bond. This cleavage separates the highly fluorogenic peptide from the 2,4-dinitrophenyl quencher, thus resulting in increase of fluorescent intensity.
(§5) The stock solutions of the assayed hydroxamic acids (or salts thereof) were prepared in 1% dimethyl sulfoxide (DMSO). These stock solutions were diluted in Buffer A (100 mM Tris-HCl, 100 mM NaCl, 10 mM CaCl2, 0.05% polyoxyethylene 23 lauryl ether, pH 7.5) to obtain solutions with different hydroxamic acid concentrations, i.e., assay solutions with different concentrations of the assayed MMP inhibitory compound. The experiment controls contained the same amount of Buffer A/DMSO as the assayed sample, but contained no hydroxamic acid (or salt thereof).
(§6) The assays from which the Ki determinations were made were performed as follows. The assayed hydroxamic acid samples were incubated in separate wells of untreated white polystyrene plates (Nunc Nalgene International, Rochester, N.Y.), and analyzed on a Tecan SpectraFlour Plus plate reader. The excitation wavelength was 330 nm, and the emission wavelength—420 nm. All samples (assayed hydroxamic acids and controls) were incubated in separate plate wells at room temperature for 1 hr in the presence of 4 μM of MMP substrate (II). In the absence of MMP inhibitory activity, substrate II was cleaved at the Gly-Leu bond resulting in an increase of relative fluorescence. Inhibition was observed as a reduced rate of this increase in relative fluorescence. The various hydroxamic acids were analyzed using a single low enzyme concentration with a single substrate concentration fixed at or below the Km.

[2] = target: T2, MMP-9 (Homo sapiens, UniProt P14780); assay: as above; type: biochemical
T2 construct: made in house; host or cells: MMP-9-transfected HT1080 cells (spent media)
Experimental: as §1, §2
The MMP-9 proenzyme was purified by gelatin Sepharose chromatography from spent media of MMP-9-transfected HT1080 cells provided by Dr. Howard Welgus of Washington University (St. Louis, Mo.).
as §3, §4, §5
as §6, with “Km. This protocol is a modification of method by Knight et al., FEBS Lett., 296(3), 263-266 (1992). Apparent inhibitory constants were determined by non-linear regression of reaction velocity as a function of inhibitor and enzyme concentration using Morrison's equation, as described by Kuzmic, Anal. Biochem. 286, 45-50 (2000). Modifications were made in the non-linear regression method to allow a common control reaction rate and effective enzyme concentration to be shared between all dose-response relationships on a given assay plate. […]” for “Km.”

[3] = value not in parenthesis, read-out: MMP-13 Ki
[4] = human recombinant enzyme, 4 μM substrate II, room temperature, 1 hr, read-out: MMP-13 Ki
[5] = human recombinant enzyme, 4 μM substrate II, room temperature, 1 hr

T2 sequence (P14780 107-707 limits assumed): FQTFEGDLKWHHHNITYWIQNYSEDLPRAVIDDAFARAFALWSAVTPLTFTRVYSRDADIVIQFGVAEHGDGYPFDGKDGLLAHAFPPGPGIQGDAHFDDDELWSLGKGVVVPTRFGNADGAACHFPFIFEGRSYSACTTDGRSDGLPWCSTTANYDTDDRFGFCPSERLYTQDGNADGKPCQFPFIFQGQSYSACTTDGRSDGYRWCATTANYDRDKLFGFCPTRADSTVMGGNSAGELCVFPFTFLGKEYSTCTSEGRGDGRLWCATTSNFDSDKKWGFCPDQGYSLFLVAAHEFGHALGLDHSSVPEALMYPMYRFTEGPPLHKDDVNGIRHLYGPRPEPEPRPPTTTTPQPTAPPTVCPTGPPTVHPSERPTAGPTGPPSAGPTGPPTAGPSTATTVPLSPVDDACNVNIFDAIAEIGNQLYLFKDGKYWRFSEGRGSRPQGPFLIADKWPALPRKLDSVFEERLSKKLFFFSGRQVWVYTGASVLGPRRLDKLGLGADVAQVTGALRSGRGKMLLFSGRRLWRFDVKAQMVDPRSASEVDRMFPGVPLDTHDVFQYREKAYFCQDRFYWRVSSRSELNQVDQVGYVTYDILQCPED

Structure (SMILES) | Ki [1, 3] | Ki ([2]; value not in parenthesis) | Ki [1, 4] | Ki [2, 5] | Ki ([1]; MMP-13 Ki, value not in parenthesis)
CCCc1ccc(N2CCN(S(=O)(=O)C3(C(=O)NO)CCOCC3)CC2)nc1 [Example 136] | 0.423 nM | 0.196 nM | – | – | –
CCCCOc1ccc(N2CCN(S(=O)(=O)C3(C(=O)NO)CCN(c4ccc(C)cn4)CC3)CC2)cc1 [Example 125] | 1.67 nM | 7.2 nM | – | – | –
CCCCOc1ccc(N2CCN(S(=O)(=O)C3(C(=O)NO)CCN(C(=O)c4cc5ccccc5o4)CC3)CC2)cc1 [Example 127] | 6.18 nM | 24 nM | – | – | –
COCCN1CCC(C(=O)NO)(S(=O)(=O)N2CCN(c3ccc(OCC(F)(F)C(F)(F)F)cc3)CC2)CC1 [Example 144] | 0.306 nM | 2.31 nM | – | – | –
COCCN1CCC(C(=O)NO)(S(=O)(=O)N2CCC(c3ccc(OCCCC(F)(F)F)cc3)CC2)CC1 [Example 20, N-hydroxy-1-(2-methoxyethyl)-4-({4-[4-(4,4,4-trifluorobutoxy)phenyl]piperidin-1-yl}sulfonyl)piperidine-4-carboxamide Hydrochloride] | – | – | 0.15 nM | 3.86 nM | –
O=C(NO)C1(S(=O)(=O)N2CCN(c3ccc(-c4ccccc4)c(F)c3)CC2)CCOCC1 [Example 12, 4-{[4-(2-fluoro-1,1′-biphenyl-4-yl)piperazin-1-yl]sulfonyl}-N-hydroxytetrahydro-2H-pyran-4-carboxamide Hydrochloride] | – | – | 0.77 nM | 1 nM | –
CCCCOc1ccc(N2CCN(S(=O)(=O)C3(C(=O)NO)CCN(c4ccc(O)cc4)CC3)CC2)cc1 [Example 121] | 0.68 nM | 3.6 nM | – | – | –
O=C(NO)C1(S(=O)(=O)N2CCC(c3ccc(CCC(F)(F)C(F)(F)F)cc3)CC2)CCOCC1 [Example 18, N-hydroxy-4-({4-[4-(3,3,4,4,4-pentafluorobutyl)phenyl]piperidin-1-yl}sulfonyl)tetrahydro-2H-pyran-4-carboxamide] | – | – | 0.444 nM | 0.398 nM | –
CCCCOc1ccc(N2CCN(S(=O)(=O)C3(C(=O)NO)CCN(c4ccccn4)CC3)CC2)cc1 [Example 149] | 1.31 nM | 5.87 nM | – | – | –
O=C(NO)C1(S(=O)(=O)N2CCN(c3ccc(COCC(F)(F)C(F)(F)C(F)(F)F)cc3)CC2)CCOCC1 [Example 69] | – | 202 nM | – | – | 2.11 nM
O=C(NO)C1(S(=O)(=O)N2CCN(c3ccc(-c4ccc(Cl)cc4)cn3)CC2)CCOCC1 [Example 60] | 0.32 nM | 7.05 nM | – | – | –
COCCN1CCC(C(=O)NO)(S(=O)(=O)N2CCN(c3ccc(OCCCC(F)(F)F)cc3)CC2)CC1 [Example 9, N-hydroxy-1-(2-methoxyethyl)-4-({4-[4-(4,4,4-trifluorobutoxy)phenyl]piperazin-1-yl}sulfonyl)piperidine-4-carboxamide Dihydrochloride] | – | – | 0.05 nM | 2.76 nM | –
CCCCOc1ccc(C2CCN(S(=O)(=O)C3(C(=O)NO)CCN(CCOC)CC3)CC2)cc1 [Example 16, 4-{[4-(4-butoxyphenyl)piperidin-1-yl]sulfonyl}-N-hydroxy-1-(2-methoxyethyl)piperidine-4-carboxamide Hydrochloride] | – | – | 0.34 nM | 0.47 nM | –
CCCCOc1ccc(N2CCN(S(=O)(=O)C3(C(=O)NO)CCN(c4cnccn4)CC3)CC2)cc1 [Example 140] | 0.446 nM | 1.76 nM | – | – | –
CCCCCCCCCc1cnc(N2CCN(S(=O)(=O)C3(C(=O)NO)CCOCC3)CC2)nc1 [Example 110] | 3.23 nM | 40.6 nM | – | – | –

Now from value to compound, other results behind:

Ki [1, 3] | Ki ([2]; value not in parenthesis) | Ki [1, 4] | Ki [2, 5] | Structure (SMILES) | Ki ([1]; MMP-13 Ki, value not in parenthesis)
– | – | 6.17 nM | 8.18 nM | CCCCCc1ccc(N2CCN(S(=O)(=O)C3(C(=O)NO)CCN(C(=O)C(F)(F)F)CC3)CC2)cc1 [Example 21, N-hydroxy-4-{[4-(4-pentylphenyl)piperazin-1-yl]sulfonyl}-1-(trifluoroacetyl)piperidine-4-carboxamide Hydrochloride] | –
1.15 nM | 5.09 nM | – | – | Cc1ccc(N2CCN(S(=O)(=O)C3(C(=O)NO)CCOCC3)CC2)nc1 [Example 138] | –
7.35 nM | 13.7 nM | – | – | CCCCCc1ccc(N2CCN(S(=O)(=O)C3(C(=O)NO)CCN(c4ccc(C)cc4)CC3)CC2)cc1 [Example 147] | –
– | – | 2.78 nM | 3.2 nM | CCCCCc1ccc(N2CCN(S(=O)(=O)C3(C(=O)NO)CCN(CC)CC3)CC2)cc1F [Example 22, 1-ethyl-4-{[4-(3-fluoro-4-pentylphenyl)piperazin-1-yl]sulfonyl}-N-hydroxypiperidine-4-carboxamine Hydrochloride] | –
0.43 nM | 1.5 nM | – | – | CCCCOc1ccc(N2CCN(S(=O)(=O)C3(C(=O)NO)CCN(C(=O)NCCOC)CC3)CC2)cc1 [Example 118] | –
– | – | 4.17 nM | 2.67 nM | CCCCCc1ccc(N2CCN(S(=O)(=O)C3(C(=O)NO)CCOCC3)CC2)c(F)c1 [Example 23, 4-{[4-(2-fluoro-4-pentylphenyl)piperazin-1-yl]sulfonyl}-N-hydroxytetrahydro-2H-pyran-4-carboxamide Hydrochloride] | –
1.74 nM | 3.49 nM | – | – | CCCCCc1cnc(N2CCN(S(=O)(=O)C3(C(=O)NO)CCOCC3)CC2)s1 [Example 56] | –
– | – | 0.97 nM | 6 nM | O=C(NO)C1(S(=O)(=O)N2CCC(c3ccc(OCC(F)(F)F)cc3)CC2)CCN(C2CC2)CC1 [Example 25, 1-cyclopropyl-N-hydroxy-4-({4-[4-(2,2,2-trifluoroethoxy)phenyl]piperidin-1-yl}sulfonyl)piperidine-4-carboxamide Hydrochloride] | –
1.17 nM | 4.97 nM | – | – | CCCCOc1ccc(N2CCN(S(=O)(=O)C3(C(=O)NO)CCN(C(=O)OCC(F)(F)F)CC3)CC2)cc1 [Example 115] | –
– | – | 1.46 nM | 0.93 nM | CCOc1ccc(N2CCN(S(=O)(=O)C3(C(=O)NO)CCOCC3)CC2)cc1 [Example 3, 4-{[4-(4-ethoxyphenyl)piperazinyl]sulfonyl}perhydro-2H-pyran-4-carbohydroxamic Acid] | –
0.92 nM | 3.8 nM | – | – | C=CCCOC(=O)N1CCC(C(=O)NO)(S(=O)(=O)N2CCN(c3ccc(OCCCC)cc3)CC2)CC1 [Example 101] | –
5.74 nM | 90 nM | – | – | O=C(NO)C1(S(=O)(=O)N2CCN(c3ccc(SC(F)(F)F)cc3)CC2)CCN(Cc2ccccc2)CC1 [Example 152] | –
0.347 nM | 1.18 nM | – | – | CCCCOc1ccc(N2CCN(S(=O)(=O)C3(C(=O)NO)CCOCC3)CC2)cc1 [Example 145] | –
0.24 nM | 2.35 nM | – | – | COCCN1CCC(C(=O)NO)(S(=O)(=O)N2CCN(c3ccc(OCCC(C)C)cc3)CC2)CC1 [Example 148] | –
